# Assay results taken from PubChem BioAssay AID330 (DTP/NCI, 2004).
# Values joined by “and” are separate entries in the source; they are usually repeats but may differ in a detail not shown here. Identical values can stand only once. Inconclusive results and toxic doses are left out.
# Test system: P388 leukemia ip, CD2F1 mice, survival T/C
# Assay: NCI In Vivo Anticancer Drug Screen. Data for tumor model P388 Leukemia (intraperitoneal) in CD2F1 (CDF1) mice
# Settings: endpoint: median survival time, higher = longer survival
# How it was run: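 Mice carrying the transplanted tumor received test compound or vehicle. Survival was recorded in each group, and the value is the treated-group measurement divided by that of the vehicle-treated control group.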
# [1] = dose: 50.0 mg/kg/injection, schedule: Q01DX005 (ip), vehicle: saline
# [2] = dose: 100.0 mg/kg/injection, schedule: Q01DX005 (ip), vehicle: saline
# [3] = dose: 200.0 mg/kg/injection, schedule: Q01DX005 (ip), vehicle: saline
# [4] = dose: 100.0 mg/kg/injection, schedule: Q04DX003 (ip), vehicle: saline
# [5] = dose: 200.0 mg/kg/injection, schedule: Q04DX003 (ip), vehicle: saline
# [6] = dose: 400.0 mg/kg/injection, schedule: Q04DX003 (ip), vehicle: saline
# [7] = dose: 50.0 mg/kg/injection, schedule: Q01DX009 (ip), vehicle: saline
# [8] = dose: 50.0 mg/kg/injection, schedule: Q01DX009 (ip), vehicle: saline with Tween-80
# [9] = dose: 100.0 mg/kg/injection, schedule: Q01DX009 (ip), vehicle: saline with Tween-80
# [10] = dose: 200.0 mg/kg/injection, schedule: Q01DX009 (ip), vehicle: saline with Tween-80
compound,measurement,setting,value
O=C1c2cc(Oc3ccccc3)c(S(=O)(=O)O)c(S(=O)(=O)O)c2C(=O)c2c(O)ccc(O)c21,T/C,"dose: 25.0 mg/kg/injection, schedule: Q01DX005 (ip), vehicle: saline",104 % of control
same,T/C,[1],107 % of control
same,T/C,[2],94 % of control
same,T/C,[3],94 % of control
C/C(=C\c1cc2cc(C(=N)N)ccc2o1)c1cc2cc(C(=N)N)ccc2o1,T/C,"dose: 400.0 mg/kg/injection, schedule: Q04DX002 (ip), vehicle: saline",159 % of control
O=C(O)/C=C\C(=O)Nc1ccccc1NC(=O)/C=C/C(=O)O,T/C,[4],91 % of control
same,T/C,[5],100 % of control
same,T/C,[6],87 % of control
CC(C)(C)COCC(O)Cn1cnc2c(N)ncnc21 (stereo not given),T/C,"dose: 50.0 mg/kg/injection, schedule: Q01DX005 (ip), vehicle: Klucel (hydroxypropylcellulose) (HPC)",100 % of control
same,T/C,"dose: 100.0 mg/kg/injection, schedule: Q01DX005 (ip), vehicle: Klucel (hydroxypropylcellulose) (HPC)",97 % of control
same,T/C,"dose: 200.0 mg/kg/injection, schedule: Q01DX005 (ip), vehicle: Klucel (hydroxypropylcellulose) (HPC)",91 % of control
O=C1OC(=O)c2c(Br)c(Br)c(Br)c(Br)c21,T/C,[4],100 % of control
same,T/C,[5],100 % of control
same,T/C,[6],104 % of control
CN(C=O)COC(=O)c1ccccc1,T/C,"dose: 31.25 mg/kg/injection, schedule: Q01DX005 (ip), vehicle: distilled water + Tween-80",104 % of control
same,T/C,"dose: 62.5 mg/kg/injection, schedule: Q01DX005 (ip), vehicle: distilled water + Tween-80",96 % of control
same,T/C,"dose: 125.0 mg/kg/injection, schedule: Q01DX005 (ip), vehicle: distilled water + Tween-80",93 % of control
same,T/C,"dose: 250.0 mg/kg/injection, schedule: Q01DX005 (ip), vehicle: distilled water + Tween-80",104 % of control
NCCc1cc(O)c(O)c(O)c1,T/C,[7],108 % of control and 109 % of control
same,T/C,"dose: 100.0 mg/kg/injection, schedule: Q01DX009 (ip), vehicle: saline",117 % of control
same,T/C,"dose: 400.0 mg/kg/injection, schedule: Q01DX009 (ip), vehicle: saline",153 % of control and 168 % of control
NC(=O)C(NC(=O)c1ccc([N+](=O)[O-])cc1)C(N)=O,T/C,[4],103 % of control
same,T/C,[5],103 % of control
same,T/C,[6],103 % of control
C/C(=N\NC(=S)N1CCSCC1)c1ccccn1,T/C,"dose: 6.25 mg/kg/injection, schedule: Q01DX005 (ip), vehicle: saline with Tween-80",113 % of control
same,T/C,"dose: 12.5 mg/kg/injection, schedule: Q01DX005 (ip), vehicle: saline with Tween-80",91 % of control
O=c1c2c([nH]c3c1ccc1c(=O)c4c([nH]c13)CCCC4)CCCC2,T/C,[8],98 % of control
same,T/C,[9],96 % of control
same,T/C,[10],94 % of control
c1ccc2c(c1)CC1OCN3CN(COC4Cc5ccccc5CC43)C1C2 (stereo not given),T/C,[1],114 % of control
same,T/C,[2],111 % of control
same,T/C,[3],112 % of control
O=c1oc2cc(N=Cc3ccccc3Cl)ccc2c2ccccc12,T/C,"dose: 6.25 mg/kg/injection, schedule: Q01DX009 (ip), vehicle: saline",90 % of control
same,T/C,"dose: 12.5 mg/kg/injection, schedule: Q01DX009 (ip), vehicle: saline",90 % of control
same,T/C,"dose: 25.0 mg/kg/injection, schedule: Q01DX009 (ip), vehicle: saline",91 % of control
same,T/C,[8],98 % of control
same,T/C,[7],91 % of control
same,T/C,[9],114 % of control
same,T/C,[10],113 % of control
same,T/C,"dose: 400.0 mg/kg/injection, schedule: Q01DX009 (ip), vehicle: saline with Tween-80",87 % of control
O=C1CSC(=S)N1CCCN1CCOCC1,T/C,[8],104 % of control
same,T/C,[9],106 % of control
same,T/C,[10],101 % of control
FC(F)(F)c1ccc2c(c1)N=C(NNC1=Nc3cc(C(F)(F)F)ccc3SC1)CS2,T/C,"dose: 15.0 mg/kg/injection, schedule: Q01DX005 (ip), vehicle: saline with Tween-80",91 % of control
same,T/C,"dose: 30.0 mg/kg/injection, schedule: Q01DX005 (ip), vehicle: saline with Tween-80",86 % of control
